Values of other authors as cited in patent US6620433B2, “Dispersible and soluble galenic paracetamol formulation, method for its preparation and its applications” (Laboratorios Belmac, S.A., priority 2000, dated 2003).

Columns and labels:
mice = conditions: interperitoneal administration

CC(=O)Nc1ccc(O)cc1 [Paracetamol, N-(4-hydroxyphenyl) acetamide]
LD50 in mice (mice): 500 mg/kg | solubility in cold water (cold water): barely soluble | solubility in ether (ether): barely soluble | solubility in methanol, ethanol, dimethylformamide, ethylene dichloride, acetone and ethyl acetate (organic solvents): soluble | solubility in petroleum ether, pentane and benzene (petroleum ether, pentane, benzene): practically insoluble
